The values that follow come from patent US20240425589A1, “CYTOTOXICITY-INDUCING THERAPEUTIC AGENT FOR USE IN TREATMENT OF CANCER” (CHUGAI SEIYAKU KABUSHIKI KAISHA, priority 2021, published 2024).

The subject of test [1] is CLDN6 expression in NIH:OVCAR-3. Kind of test: CLDN6 expression by quantitative PCR after chemotherapeutic agents. The test is classed as cell-based, human. Conditions: 6 days; carboplatin 0.5 μg/mL, cisplatin 0.1 μg/mL, irinotecan 0.25 μg/mL, gemcitabine 2 ng/mL; vs untreated. The method, then:
Various chemotherapeutic agents were added to human ovarian cancer cell line (NIH:OVCAR-3, ATCC) to analyze the change in CLDN6 expression. Regarding the NIH:OVCAR-3 cells seeded on culture plates, RNAs were purified (RNeasy Mini Kit, QIAGEN) from cells to which no pharmaceutical agent was added (untreated cells), or from cells collected 6 days after addition of carboplatin (0.5 μg/mL), cisplatin (0.1 μg/mL), irinotecan (0.25 μg/mL), or gemcitabine (2 ng/mL), and then cDNA synthesis (Superscript IV VILO Master Mix, ThermoFisher) was performed. By using the cDNAs as templates, real-time PCR was performed using CLDN6-specific primers (Power SYBR (registered trademark) Green Master Mix, ThermoFisher) to analyze CLDN6 expression (QuantStudio 12K Flex Real-Time PCR System, ThermoFisher). Sequences of the primers for human CLDN6 and the primers for human GAPDH that were used as the internal control are as follows: […]

For test [2], the system named is CLDN6 expression in NIH-OVCAR3, NCI-H1435, SNG-M. In words: CLDN6 expression by FACS after platinum preparation treatment. The test is classed as cell-based, human. Conditions: 5 days; cisplatin 0.1 or 0.6 μg/mL, carboplatin 0.5 or 5 μg/mL; vs untreated. Here is the method: Human ovarian cancer cell line (NIH-OVCAR3, ATCC), human lung cancer cell line (NCI-H1435, ATCC), and human endometrial cancer cell line (SNG-M, Health Science Research Resources Bank) were treated with cisplatin (CDDP, Nichiiko) or carboplatin (CBDCA, Sandoz) to analyze the effect of the treatment on CLDN6 expression.
Each cell was subjected to the addition of cisplatin at 0.1 μg/mL (OVCAR3) or 0.6 μg/mL (H1435, SNG-M), or carboplatin at 0.5 μg/mL (OVCAR3) or 5 μg/mL (H1435, SNG-M), and then cultured for five days. After culturing, the cells were recovered, and CLDN6 expression was analyzed by FACS.
In FACS analysis, cells were detached from the culturing flask and then reacted with an anti-CLDN6 antibody (AE3-20 mIgG2a, Japanese Patent No. 5848863) or an isotype antibody (mIgG2a, BioLegend) at 2 μg/mL, at 4° C. for one hour. Next, reaction with Alexa Flour 488-labeled anti-mouse IgG (ThermoFisher) at 10 μg/mL was performed at 4° C. for one hour, and the amount of CLDN6 expression was analyzed using a flow cytometer (FACSVerse, BD Biosciences).

For test [3], the system named is TGF-β1 expression in NIH:OVCAR-3. Kind of test: TGF-β1 expression by quantitative PCR after chemotherapeutic agents. Conditions: 6 days; same treated cells as Example 21.1; vs untreated. The test is classed as cell-based, human. The method, then:
Next, the cDNAs prepared from the human ovarian cancer cell line (NIH:OVCAR-3, ATCC) treated with carboplatin, cisplatin, irinotecan, or gemcitabine, which were used in Example 21.1, were used to perform real-time PCR with TGF-β1-specific primers (Power SYBR (registered trademark) Green Master Mix, ThermoFisher), and TGF-β1 expression was analyzed (QuantStudio 12K Flex Real-Time PCR System, ThermoFisher).
Sequences of the primers for human TGF-β1 are as follows: […]
The same primers as those in the above-mentioned Example 21.1 were used as the primers for human GAPDH used as the internal control.

Test [4] deals with TGF-β1 expression in cancer cells. Conditions: reported in literature; cited from earlier work.
For test [5], the system named is CLDN6 expression in UWB1.289. Kind of test: CLDN6 expression by FACS after PARP inhibitor, UWB1.289. The test is classed as cell-based, human. Conditions: BRCA1-deficient UWB1.289, 0.03-3 μM, 3 days. The method, then:
(§1) Induction of CLDN6 expression by a PARP inhibitor (olaparib) was assessed. BRCA1-deficient ovarian cancer cell line UWB1.289 (ATCC) or BRAC1 wildtype ovarian cancer cell line OV-90 (ATCC) which express human CLDN6 were used.
(§2) Target cells (3×10^5 cells) were plated onto a 6-well plate at 3 mL/well. After culturing overnight, olaparib was added at a final concentration of 0.03, 0.1, 0.3, 1, or 3 μM. DMSO was added to the control well. After incubating the plate for 3 days, the cells were recovered and the amount of CLDN6 expression on the cell surface was determined by FACS analysis using an anti-CLDN6 antibody. The level of fluorescence in the target cells recovered from the wells, to which various concentrations of olaparib were added, are shown in FIG. 27, wherein the level of fluorescence in the target cells recovered from the control well was defined as 1.

The subject of test [6] is CLDN6 expression in OV-90. In words: CLDN6 expression by FACS after PARP inhibitor, OV-90. The test is classed as cell-based, human. Conditions: BRAC1 wildtype OV-90, 0.03-3 μM, 3 days. Here is the method:
as §1, §2

The next test has as its system NIH:OVCAR-3. Kind of test: OVCAR3 xenograft in huNOG mice, combination with irinotecan hydrochloride. The test is classed as in vivo. Conditions: 60 days after transplantation; CS4135 0.1 mg/kg, irinotecan hydrochloride 25 mg/kg, iv days 39, 46. The method, then: In this test, NOG(huNOG) mice (described in the aforementioned Example 13) transplanted with ovarian cancer cell line NIH:OVCAR-3 (OVCAR3, ATCC) and human CD34-positive cells were used. The OVCAR3 cell line was transplanted subcutaneously to the right flank of the mice, and the mice were divided into groups 39 days after transplantation. Individuals whose tumor volume reached 160 to 263 mm^3 were divided into groups. Vehicle 1 and CS4135 were administered into the mouse tail vein 39 and 46 days after transplantation. PBS containing 0.05% Tween-20 was used as Vehicle 1. Vehicle 2 and irinotecan hydrochloride (Sawai Pharmaceutical Co., Ltd.) were administered into the mouse tail vein 39 and 46 days after transplantation. Physiological saline was used as Vehicle 2.
Tumor volume was measured 39, 42, 46, 49, 53, 57, and 60 days after transplantation, and the average tumor volume is indicated for each group. The tumor volume was calculated by the following equation: […]
(§3) Tumor Growth Inhibition (TGI) was calculated by the following equation: […]

In test [7] the test system is CLDN6 expression in SNG-M tumor. In words: CLDN6 expression by real-time PCR in SNG-M tumor transplant. Format: in vivo, NOD/scid mice. Conditions: 40 mg/kg or 80 mg/kg ip twice, vs vehicle. Here is the method: SNG-M (1×10^7 cells) was transplanted subcutaneously to NOD/scid mice (CLEA Japan). After tumor engraftment, the vehicle (physiological saline) or carboplatin at 40 mg/kg or 80 mg/kg was administered intraperitoneally on the day of transplantation (day 0) and 3 days after transplantation (day 3), and the tumor was sampled 6 days after transplantation (day 6).
RNA was purified from the tumor (RNeasy Mini Kit, QIAGEN), and then cDNA synthesis was performed (Superscript IV VILO Master Mix, ThermoFisher). Using the cDNAs as templates, real-time PCR was performed using a CLDN6-specific primer (Power SYBR (registered trademark) Green Master Mix, ThermoFisher) to analyze CLDN6 expression (QuantStudio 12K Flex Real-Time PCR System, ThermoFisher).
Sequences of the primers for human CLDN6 and primers for human GAPDH used as an internal control are as follows: […]

In a further test the test system is SNG-M. In words: SNG-M xenograft in huNOG mice, combination with carboplatin. The test is classed as in vivo. Conditions: 30 days after transplantation; CS4135 0.5 mg/kg iv day 13, carboplatin 40 mg/kg ip days 13, 16, 20. Here is the method: In this test, NOG (huNOG) mice (described in the aforementioned Example 13) transplanted with human uterus cancer cell line SNG-M and human CD34-positive cells were used. The SNG-M cell line was transplanted subcutaneously to the right flank of the mice, and the mice were divided into groups 13 days after transplantation. Individuals whose tumor volume reached 130 to 244 mm^3 were divided into groups. Vehicle 1 and CS4135 were administered into the mouse tail vein 13 days after transplantation. PBS containing 0.05% Tween-20 was used as Vehicle 1. Vehicle 2 and carboplatin (Bristol Myers Squibb Company) were administered intraperitoneally to the mice 13, 16, and 20 days after transplantation. Physiological saline was used as Vehicle 2.
Tumor volume was measured 13, 16, 20, 23, 26, and 30 days after transplantation, and the average tumor volume was indicated for each group.
The tumor volume was calculated by the following equation: […]
as §3

Another test relates to OVCAR3. In words: OVCAR3 xenograft in huNOG mice, combination with carboplatin. Format: in vivo. Conditions: 56 days after transplantation; CS4135 0.1 mg/kg iv days 38, 45 (sequential: 48, 55), carboplatin 60 mg/kg ip days 38, 45. The method, then:
In this test, NOG (huNOG) mice (described in the aforementioned Example 13) transplanted with ovarian cancer cell line OVCAR3 and human CD34-positive cells were used. The OVCAR3 cell line was transplanted subcutaneously to the right flank of the mice, and the mice were divided into groups 38 days after transplantation. Individuals whose tumor volume reached 119 to 210 mm^3 were divided into groups. Vehicle 1 and CS4135 were administered into the mouse tail vein 38 and 45 days after transplantation. PBS containing 0.05% Tween-20 was used as Vehicle 1. Vehicle 2 and carboplatin (Bristol Myers Squibb Company) were administered intraperitoneally to the mice 38 and 45 days after transplantation. Physiological saline was used as Vehicle 2.
Tumor volume was measured 38, 42, 45, 48, 52, and 56 days after transplantation, and the average tumor volume was indicated for each group. The tumor volume was calculated by the following equation: […]
as §3

Where a name gives a salt, the structure may show the parent alone.

On to `N.N.[Cl][Pt][Cl]` [cisplatin], for which the CLDN6 expression entry in test [1] is “Increase in CLDN6 expression was observed”; in [2], “increase in CLDN6 expression”. Moreover, the TGF-β1 expression entry in test [3] is “Increase in TGF-β1 expression was observed”.

For the molecule `Nc1ccn([C@@H]2O[C@H](CO)[C@@H](O)C2(F)F)c(=O)n1` [gemcitabine], in test [1], the CLDN6 expression entry was “Increase in CLDN6 expression was observed”. Besides, the TGF-β1 expression result in [3] was “Increase in TGF-β1 expression was observed”.

As for `CC(=O)O[C@H]1C(=O)[C@@]2(C)[C@H]([C@H](OC(=O)c3ccccc3)[C@]3(O)C[C@H](OC(=O)[C@H](O)[C@@H](NC(=O)c4ccccc4)c4ccccc4)C(C)=C1C3(C)C)[C@]1(OC(C)=O)CO[C@@H]1C[C@@H]2O` [paclitaxel], in test [4], the “expression of TGF-β1 in cancer cells” value was “induce expression of TGF-β11 in cancer cells”.

In the case of `CCc1c2c(nc3ccc(OC(=O)N4CCC(N5CCCCC5)CC4)cc13)-c1cc3c(c(=O)n1C2)COC(=O)[C@]3(O)CC` [irinotecan], the CLDN6 expression entry in [1] is “Increase in CLDN6 expression was observed”. In test [3], the TGF-β1 expression entry was “Increase in TGF-β1 expression was observed”.

Turning to `O=C(c1cc(Cc2n[nH]c(=O)c3ccccc23)ccc1F)N1CCN(C(=O)C2CC2)CC1` [olaparib], the CLDN6 expression induction result in [5] is recorded as “concentration-dependent enhancement of CLDN6 expression induction was observed”; in test [6] it was “enhancement of CLDN6 expression induction was not observed at any concentration”.

In the case of `CCc1c2c(nc3ccc(OC(=O)N4CCC(N5CCCCC5)CC4)cc13)-c1cc3c(c(=O)n1C2)COC(=O)[C@]3(O)CC` [Irinotecan hydrochloride, irinotecan hydrochloride, reference compound], in the test with NIH:OVCAR-3, the “Tumor growth inhibition: TGI” value is on record as 65%.

As to `N.N.O=C([O-])C1(C(=O)[O-])CCC1.[Pt+2]` [Carboplatin, carboplatin], the CLDN6 expression entry in [1] was “Increase in CLDN6 expression was observed”; in [2], “increase in CLDN6 expression”. In addition, the “CLDN6 expression in the tumor” value in test [7] is recorded as “increased”. Further, the “Tumor growth inhibition: TGI” value with SNG-M was 44%; in the test with OVCAR3, −9%. For the same molecule, the TGF-β1 expression entry in test [3] was “Increase in TGF-β1 expression was observed”.

On to `COc1cccc2c1C(=O)c1c(O)c3c(c(O)c1C2=O)C[C@@](O)(C(=O)CO)C[C@@H]3O[C@H]1C[C@H](N)[C@H](O)[C@H](C)O1` [doxorubicin], for which the “expression of TGF-β1 in cancer cells” value in test [4] was “induce expression of TGF-β11 in cancer cells”.
